From patent publication US10448639B2, “Fungicidal pyrazoles” (FMC CORPORATION, priority 2009, dated 2019)
Like-named read-outs stand apart in the source and are kept apart here.

Key:
Plasmopara viticola = assay: Test A: grape downy mildew, curative spray on inoculated grape seedlings, visual disease rating; format: in vivo; conditions: 100 = 100% disease control, 0 = no control relative to controls
Source text: Upon removal, visual disease ratings were made. […] A dash (-) indicates no test results.

Phytophthora infestans = format: in vivo; conditions: tomato late blight, 100 = 100% disease control
Rhizoctonia solani = assay: Test E: turf brown patch, preventive spray on creeping bent grass (Agrostis sp.) seedlings, disease rating; format: in vivo; conditions: 100 = 100% disease control
Source text: A dash (-) indicates no test results.

[1] = system: Puccinia recondita f. sp. tritici; assay: Test I: wheat leaf rust, preventive spray on wheat seedlings, visual disease rating; conditions: wheat leaf rust, 100 = 100% disease control
Source text: General protocol for preparing test suspensions for Tests A-J: the test compounds were first dissolved in acetone in an amount equal to 3% of the final volume and then suspended at the desired concentration (in ppm) in acetone and purified water (50/50 mix by volume) containing 250 ppm of the surfactant Trem® 014 (polyhydric alcohol esters). The resulting test suspensions were then used in Tests A-J. Spraying a 200 ppm test suspension to the point of run-off on the test plants was the equivalent of a rate of 500 g/ha. Unless otherwise indicated, the rating values indicate a 200 ppm test suspension was used. (An asterisk “*” next to the rating value indicates a 40 ppm test suspension was used.)
The test suspension was sprayed to the point of run-off on wheat seedlings. The following day the seedlings were inoculated with a spore suspension of Puccinia recondita f. sp. tritici (the causal agent of wheat leaf rust) and incubated in a saturated atmosphere at 20° C. for 24 h, and then moved to a growth chamber at 20° C. for 7 days, after which time visual disease ratings were made

Botrytis cinerea = assay: Test B: tomato Botrytis, preventive spray on tomato seedlings, visual disease rating; conditions: tomato Botrytis, 100 = 100% disease control
Alternaria solani = assay: Test C: tomato early blight, preventive spray on tomato seedlings, visual disease rating; conditions: tomato early blight, 100 = 100% disease control
[2] = system: Erysiphe graminis f sp. tritici; assay: Test J: wheat powdery mildew, preventive spray on wheat seedlings, visual disease rating; conditions: wheat powdery mildew, 100 = 100% disease control
Septoria nodorum = assay: Test F: Septoria glume blotch, preventive spray on wheat seedlings, visual disease rating; conditions: 100 = 100% disease control
Septoria tritici = assay: Test G: wheat leaf blotch, preventive spray on wheat seedlings, visual disease rating; conditions: wheat leaf blotch, preventive spray; 100 = 100% disease control, 0 = no control
[3] = 0 = no control relative to controls
[4] = preventive, 0 = no control relative to controls
[5] = Septoria glume blotch, 0 = no control relative to controls
[6] = preventive spray, 0 = no control
[7] = Septoria glume blotch on wheat, preventive spray, 0 = no control

| SMILES | Test A rating (% disease control) (Plasmopara viticola) [%] | Test D rating (% disease control) (Phytophthora infestans; [3]) [%] | Test E rating (% disease control) (Rhizoctonia solani; [3]) [%] | Test I rating (% disease control) [1, 4] [%] | Test B rating (% disease control) (Botrytis cinerea; [3]) [%] | Test C rating (% disease control) (Alternaria solani; [3]) [%] | Test J rating (% disease control) [2, 3] [%] | Test F rating (% disease control) (Septoria nodorum; [5]) [%] | Test A rating (% disease control) (Plasmopara viticola; curative spray) [%] | Test D rating (% disease control) (Phytophthora infestans; [6]) [%] | Test E rating (% disease control) (Rhizoctonia solani; [6]) [%] | Test I rating (% disease control) [1, 6] [%] | Test B rating (% disease control) (Botrytis cinerea; [6]) [%] | Test G rating (% disease control) (Septoria tritici) [%] | Test C rating (% disease control) (Alternaria solani; [6]) [%] | Test J rating (% disease control) [2, 6] [%] | Test F rating (% disease control) (Septoria nodorum; [7]) [%] |
| --- | --- | --- | --- | --- | --- | --- | --- | --- | --- | --- | --- | --- | --- | --- | --- | --- | --- |
| Cc1nn(C)c(N(C)c2c(F)cc(F)cc2F)c1-c1ccc(F)cc1Cl [compound 293] | 0 | 0 | 99 | 94 | 97 | 47 | 99 | 0 |  |  |  |  |  |  |  |  |  |
| Cc1nn(C)c(Nc2ccc(F)c(Cl)c2)c1-c1ccc(F)cc1Cl [compound 7] |  |  |  |  |  |  |  |  | 29 | 0 | 63 | 74 | 99 | 100 | 0 | 92 | 0 |
| Cc1nn(C)c(N(C)c2cc(F)cc(F)c2)c1-c1ccc(Cl)cc1 [compound 6] |  |  |  |  |  |  |  |  | 65 | 0 | 0 | 0 | 10 | 0 | 23 | 93 | 0 |
| Cc1nn(C)c(Nc2ccc(F)cc2F)c1-c1ccc(Cl)cc1 [compound 4] |  |  |  |  |  |  |  |  | 29 | 0 | 0 | 53 | 87 | 98 | 46 | 97 | 0 |
| Cc1nn(C)c(N(C)c2cccc(Cl)c2)c1-c1ccc(F)cc1F [compound 3] |  |  |  |  |  |  |  |  | 6 | 9 | 0 | 0 | 0 | 13 | 25 | 99 | 0 |
| COc1cc(Nc2c(-c3c(F)cccc3F)c(C)nn2C)cc(OC)c1 [compound 37] |  |  |  |  |  |  |  |  | 0 | 0 | 0 | 0 | 0 | 3 | 0 | 0 | 0 |
| COc1ccc(Nc2c(-c3ccc(F)cc3Cl)c(C)nn2C)cc1 [compound 288] | 9 | 0 | 92 | 74 | 99 | 52 | 92 | 0 |  |  |  |  |  |  |  |  |  |
| CCN(c1c(F)cc(F)cc1F)c1c(-c2ccc(F)cc2Cl)c(C)nn1C [compound 294] | 0 | 0 | 80 | 0 | 98 | 0 | 84 | 0 |  |  |  |  |  |  |  |  |  |
